According to PubChem BioAssay AID218 (DTP/NCI, 2004):
Several values for one entry are separate records, joined by “and”; a condition that tells them apart may be missing. Identical values can stand only once.

Test system: C57BL/6 mice, Adenocarcinoma 755 sc, tumor weight T/C
Experiment: NCI In Vivo Anticancer Drug Screen. Data for tumor model Adenocarcinoma 755 (subcutaneous) in C57BL/6 mice
Details: endpoint: mean tumor weight, higher = larger tumour
Method: The antitumor activity of compounds was measured in mice bearing transplantable tumors. Survival or tumor size were measured and the results are expressed as the measurement made in the treated group (T) divided by the measurement made in the vehicle treated control group (C). The tumor model used in this assay is Adenocarcinoma 755 (subcutaneous) in C57BL/6 mice

[1] = dose: 0.13 mg/kg/injection, schedule: Q01DX011 (ip), vehicle: saline
[2] = dose: 0.2 mg/kg/injection, schedule: Q01DX011 (ip), vehicle: saline
[3] = dose: 50.0 mg/kg/injection, schedule: Q01DX011 (ip), vehicle: saline
[4] = dose: 15.0 mg/kg/injection, schedule: Q01DX011 (ip), vehicle: saline
[5] = dose: 20.0 mg/kg/injection, schedule: Q01DX011 (ip), vehicle: saline
[6] = dose: 25.0 mg/kg/injection, schedule: Q01DX011 (ip), vehicle: saline
[7] = dose: 200.0 mg/kg/injection, schedule: Q01DX011 (ip), vehicle: saline
[8] = dose: 3.13 mg/kg/injection, schedule: Q01DX011 (ip), vehicle: saline
[9] = dose: 6.25 mg/kg/injection, schedule: Q01DX011 (ip), vehicle: saline
[10] = dose: 125.0 mg/kg/injection, schedule: Q01DX011 (ip), vehicle: saline
[11] = dose: 150.0 mg/kg/injection, schedule: Q01DX011 (ip), vehicle: saline
[12] = dose: 30.0 mg/kg/injection, schedule: Q01DX011 (ip), vehicle: saline
[13] = dose: 50.0 mg/kg/injection, schedule: Q01DX011 (ip), vehicle: carboxymethylcellulose (CMC)

Structure (SMILES): C1CN1c1nc(N2CC2)nc(N2CC2)n1
- T/C (dose: 0.1 mg/kg/injection, schedule: Q01DX011 (ip), vehicle: saline): 28 % of control
- T/C (dose: 0.11 mg/kg/injection, schedule: Q01DX011 (ip), vehicle: saline): 44 % of control
- T/C [1]: 61 % of control
- T/C (dose: 0.15 mg/kg/injection, schedule: Q01DX011 (ip), vehicle: saline): 21 % of control
- T/C [2]: 12 % of control
- T/C (dose: 0.25 mg/kg/injection, schedule: Q02DX006 (ip), vehicle: saline): 80 % of control
- T/C (dose: 0.3 mg/kg/injection, schedule: Q01DX011 (ip), vehicle: saline): 5 % of control
- T/C (dose: 0.5 mg/kg/injection, schedule: Q01DX011 (ip), vehicle: saline): 19 % of control
- T/C (dose: 0.5 mg/kg/injection, schedule: Q02DX006 (ip), vehicle: saline): 121 % of control

Structure (SMILES): O=C(O)c1[nH]c(=O)[nH]c(=O)c1Br
- T/C [3]: 54 % of control

Structure (SMILES): Cn1cnc([N+](=O)[O-])c1Sc1nc(N)nc2nc[nH]c12
- T/C (dose: 5.0 mg/kg/injection, schedule: Q01DX011 (oral), vehicle: saline): 2 % of control

Structure (SMILES): CCCCNc1ncnc2[nH]ncc12
- T/C [4]: 31 % of control
- T/C [5]: 7 % of control
- T/C [6]: 24 % of control

Structure (SMILES): O=c1[nH][nH]c(=O)[nH]1
- T/C [7]: 85 % of control
- T/C (dose: 225.0 mg/kg/injection, schedule: Q01DX011 (ip), vehicle: saline): 94 % of control

Structure (SMILES): Cc1c2ccccc2c(C)c2c1ccc1ccccc12
- T/C (dose: 9.0 mg/kg/injection, schedule: Q01DX011 (ip), vehicle: saline): 44 % of control
- T/C (dose: 19.0 mg/kg/injection, schedule: Q01DX011 (ip), vehicle: saline): 19 % of control

Structure (SMILES): CC(=O)OCC(=O)[C@@]1(O)CC[C@H]2[C@@H]3CCC4=CC(=O)CC[C@]4(C)[C@H]3C(=O)C[C@@]21C
- T/C (dose: 40.0 mg/kg/injection, schedule: Q01DX011 (sc), vehicle: saline): 24 % of control
- T/C (dose: 45.0 mg/kg/injection, schedule: Q01DX011 (sc), vehicle: saline): 43 % of control
- T/C (dose: 50.0 mg/kg/injection, schedule: Q01DX011 (sc), vehicle: saline): 16 % of control
- T/C (dose: 60.0 mg/kg/injection, schedule: Q01DX011 (sc), vehicle: saline): 15 % of control and 39 % of control
- T/C (dose: 100.0 mg/kg/injection, schedule: Q01DX011 (sc), vehicle: saline): 8 % of control

Structure (SMILES): Cc1ncc(CO)c(C)c1O
- T/C [8]: 88 % of control
- T/C [9]: 107 % of control
- T/C (dose: 12.5 mg/kg/injection, schedule: Q01DX011 (ip), vehicle: saline): 98 % of control
- T/C [6]: 106 % of control
- T/C [3]: 74 % of control and 88 % of control
- T/C (dose: 100.0 mg/kg/injection, schedule: Q01DX011 (ip), vehicle: saline): 84 % of control and 107 % of control
- T/C [10]: 47 % of control
- T/C [11]: 56 % of control and 66 % of control
- T/C [7]: 119 % of control

Structure (SMILES): O=C(O)c1cc(=O)[nH]c(=S)[nH]1
- T/C [5]: 91 % of control
- T/C [12]: 121 % of control
- T/C (dose: 40.0 mg/kg/injection, schedule: Q01DX011 (ip), vehicle: saline): 78 % of control
- T/C [3]: 82 % of control

Structure (SMILES): CCNc1ncnc2[nH]ncc12
- T/C [4]: 13 % of control
- T/C [5]: 4 % of control

Structure (SMILES): CSc1ncnc2c1ncn2C1OC(CO)C(O)C1O (centres undefined)
- T/C (dose: 5.0 mg/kg/injection, schedule: Q01DX011 (ip), vehicle: saline): 78 % of control
- T/C (dose: 10.0 mg/kg/injection, schedule: Q01DX011 (ip), vehicle: saline): 50 % of control
- T/C [4]: 67 % of control

Structure (SMILES): CC(C)CNC(=S)N/N=C/c1ccccc1
- T/C (dose: 75.0 mg/kg/injection, schedule: Q02DX006 (ip), vehicle: other): 70 % of control
- T/C (dose: 100.0 mg/kg/injection, schedule: Q02DX006 (ip), vehicle: other): 94 % of control

Structure (SMILES): COC1=C(N)C(=O)c2nc(-c3nc(C(=O)O)c(C)c(-c4ccc(OC)c(OC)c4O)c3N)ccc2C1=O
- T/C (dose: 0.06 mg/kg/injection, schedule: Q01DX011 (ip), vehicle: saline): 84 % of control
- T/C (dose: 0.09 mg/kg/injection, schedule: Q01DX011 (ip), vehicle: saline): 77 % of control
- T/C [1]: 64 % of control
- T/C [2]: 38 % of control

Structure (SMILES): O=C1C(NC(=O)C2CCCCC2)=C(N2CC2)C(=O)C(NC(=O)C2CCCCC2)=C1N1CC1
- T/C (dose: 16.0 mg/kg/injection, schedule: Q01DX009 (ip), vehicle: saline): 97 % of control
- T/C (dose: 32.0 mg/kg/injection, schedule: Q01DX009 (ip), vehicle: saline): 56 % of control
- T/C (dose: 64.0 mg/kg/injection, schedule: Q01DX009 (ip), vehicle: saline): 83 % of control

Structure (SMILES): O=c1[nH]cnc2n[nH]nc12
- T/C [11]: 55 % of control
- T/C [7]: 20 % of control

Structure (SMILES): O=[N+]([O-])c1ccc2c(c1)Cc1c-2cc(Br)c(O)c1Br
- T/C (dose: 62.5 mg/kg/injection, schedule: Q01DX011 (ip), vehicle: saline): 60 % of control
- T/C [10]: 58 % of control
- T/C (dose: 250.0 mg/kg/injection, schedule: Q01DX011 (ip), vehicle: saline): 43 % of control
- T/C (dose: 500.0 mg/kg/injection, schedule: Q01DX011 (ip), vehicle: saline): 33 % of control

Structure (SMILES): CCc1c(CC(=O)O)c2cc(C)ccc2n1Cc1ccc(Cl)cc1
- T/C (dose: 1.56 mg/kg/injection, schedule: Q01DX011 (ip), vehicle: saline): 79 % of control
- T/C [8]: 66 % of control
- T/C [9]: 109 % of control
- T/C [6]: 10 % of control
- T/C [3]: 22 % of control

Structure (SMILES): Cn1cnc2[nH]cnc(=S)c21
- T/C [13]: 110 % of control
- T/C [7]: 45 % of control
- T/C (dose: 300.0 mg/kg/injection, schedule: Q01DX011 (ip), vehicle: saline): 30 % of control
- T/C (dose: 400.0 mg/kg/injection, schedule: Q01DX011 (ip), vehicle: saline): 22 % of control

Structure (SMILES): CS(=O)(=O)OCCC(=O)N1CCN(C(=O)CCOS(C)(=O)=O)CC1
- T/C (dose: 6.25 mg/kg/injection, schedule: Q01DX011 (ip), vehicle: methylcellulose (MC)): 83 % of control
- T/C (dose: 12.5 mg/kg/injection, schedule: Q01DX011 (ip), vehicle: methylcellulose (MC)): 86 % of control
- T/C (dose: 25.0 mg/kg/injection, schedule: Q01DX011 (ip), vehicle: methylcellulose (MC)): 55 % of control

Structure (SMILES): CN(C)c1ncnc2c1ncn2C1OC(CO)C(N)C1O (centres undefined)
- T/C [5]: 23 % of control
- T/C [6]: 62 % of control
- T/C [12]: 13 % of control
- T/C (dose: 35.0 mg/kg/injection, schedule: Q01DX011 (ip), vehicle: saline): 9 % of control

Structure (SMILES): CSc1nc2nc[nH]c2c(=O)[nH]1
- T/C [13]: 112 % of control

Structure (SMILES): CCCCn1cnc2c(SSc3ncnc4c3ncn4CCCC)ncnc21
- T/C (dose: 3.75 mg/kg/injection, schedule: Q01DX011 (ip), vehicle: saline): 26 % of control
- T/C (dose: 7.5 mg/kg/injection, schedule: Q01DX011 (ip), vehicle: saline): 7 % of control
- T/C [4]: 7 % of control
- T/C [12]: 6 % of control

Structure (SMILES): [N-]=[N+]=CC(=O)CCC(N)C(=O)O (centres undefined)
- T/C (dose: 0.04 mg/kg/injection, schedule: Q01DX011 (ip), vehicle: saline): 110 % of control
- T/C (dose: 0.05 mg/kg/injection, schedule: Q01DX011 (ip), vehicle: saline): 22 % of control
- T/C (dose: 0.08 mg/kg/injection, schedule: Q01DX011 (ip), vehicle: saline): 46 % of control
- T/C (dose: 25.0 micrograms/kg/injection, schedule: Q01DX011 (ip), vehicle: saline): 39 % of control
- T/C (dose: 50.0 micrograms/kg/injection, schedule: Q01DX011 (ip), vehicle: saline): 45 % of control

Structure (SMILES): N/C(=N\N=C\c1cccc([N+](=O)[O-])c1)N[N+](=O)[O-]
- T/C (dose: 150.0 mg/kg/injection, schedule: Q02DX006 (ip), vehicle: saline): 24 % of control
- T/C (dose: 200.0 mg/kg/injection, schedule: Q02DX006 (ip), vehicle: saline): 41 % of control
